Results reported in the supplement of paper PMC10307832.

Experiments:
Experiment in all cases: relative viability (nuclei count vs DMSO), 5 days (fraction); higher = more cells survive
[1] = compound: Nc1ccn([C@@H]2O[C@H](CO)[C@@H](O)C2(F)F)c(=O)n1 [Gemcitabine] + N=C(N)NC(=N)NCCc1ccccc1 [Phenformin] (partner 250 µM)
Method in brief: (§1)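 For relative viability, nuclei counts in treated wells were divided by those in vehicle wells. Lung cancer cell lines had been pin-tool dosed in 1536-well plates the day after seeding and cultured for 5 days, then fixed and stained in one step (final 0.05% Triton X-100, 1% formaldehyde, 1 ug/ml Hoechst) and imaged at 4×. Doses were one drug alone or a fixed anchor-drug dose plus five library-drug doses (not always all listed) in √10 steps, and values are duplicate-plate medians.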

[2] = compound: Nc1ccn([C@@H]2O[C@H](CO)[C@@H](O)C2(F)F)c(=O)n1 [Gemcitabine] + CS(=O)(=O)N1CCN(Cc2cc3nc(-c4cccc5[nH]ncc45)nc(N4CCOCC4)c3s2)CC1 [Pictilisib] (partner 1 µM)
Method in brief: as §1

[3] = compound: Nc1ccn([C@@H]2O[C@H](CO)[C@@H](O)C2(F)F)c(=O)n1 [Gemcitabine] + CC(=O)c1c(C)c2cnc(Nc3ccc(N4CCNCC4)cn3)nc2n(C2CCCC2)c1=O [Palbociclib] (partner 0.5 µM)
Method in brief: as §1

[4] = compound: Nc1ccn([C@@H]2O[C@H](CO)[C@@H](O)C2(F)F)c(=O)n1 [Gemcitabine] + Nc1ncn([C@H]2C[C@H](O)[C@@H](CO)O2)c(=O)n1 [Decitabine] (partner 2 µM)
Method in brief: as §1

| Cell Line | relative viability ([1]; first compound 0.001 µM) | relative viability ([1]; first compound 0.003162 µM) | relative viability ([1]; first compound 0.01 µM) | relative viability ([1]; first compound 0.03162 µM) | relative viability ([1]; first compound 0.1 µM) | relative viability ([2]; first compound 0.001 µM) | relative viability ([2]; first compound 0.003162 µM) | relative viability ([2]; first compound 0.01 µM) | relative viability ([2]; first compound 0.03162 µM) | relative viability ([2]; first compound 0.1 µM) | relative viability ([3]; first compound 0.001 µM) | relative viability ([3]; first compound 0.003162 µM) | relative viability ([3]; first compound 0.01 µM) | relative viability ([3]; first compound 0.03162 µM) | relative viability ([3]; first compound 0.1 µM) | relative viability ([4]; first compound 0.001 µM) | relative viability ([4]; first compound 0.003162 µM) | relative viability ([4]; first compound 0.01 µM) | relative viability ([4]; first compound 0.03162 µM) | relative viability ([4]; first compound 0.1 µM) |
| --- | --- | --- | --- | --- | --- | --- | --- | --- | --- | --- | --- | --- | --- | --- | --- | --- | --- | --- | --- | --- |
| SK-MES-1 | 0.552 | 0.249 | 0.191 | 0.158 | 0.154 | 0.333 | 0.254 | 0.164 | 0.136 | 0.149 | 0.257 | 0.274 | 0.229 | 0.223 | 0.225 | 0.387 | 0.264 | 0.168 | 0.172 | 0.152 |
| NCI-H1666 | 0.559 | 0.476 | 0.383 | 0.378 | 0.355 | 0.326 | 0.471 | 0.306 | 0.284 | 0.274 | 0.603 | 0.664 | 0.651 | 0.596 | 0.578 | 0.686 | 0.55 | 0.712 | 0.538 | 0.447 |
| NCI-H1355 | 0.444 | 0.297 | 0.214 | 0.202 | 0.178 | 0.409 | 0.343 | 0.202 | 0.127 | 0.124 | 0.403 | 0.365 | 0.251 | 0.168 | 0.146 | 0.338 | 0.294 | 0.25 | 0.198 | 0.191 |
| HCC-827 | 0.448 | 0.248 | 0.281 | 0.197 | 0.154 | 1.11 | 0.845 | 0.89 | 0.591 | 0.389 | 0.497 | 0.304 | 0.309 | 0.197 | 0.164 | 0.333 | 0.226 | 0.274 | 0.166 | 0.186 |
| HARA | 0.498 | 0.556 | 0.445 | 0.222 | 0.0544 | 0.299 | 0.483 | 0.532 | 0.261 | 0.0888 | 0.234 | 0.283 | 0.219 | 0.179 | 0.139 | 0.593 | 0.702 | 0.373 | 0.279 | 0.131 |
| HCC-366 | 0.622 | 0.662 | 0.144 | 0.0348 | 0.0327 | 0.188 | 0.136 | 0.0591 | 0.0347 | 0.0366 | 0.402 | 0.383 | 0.205 | 0.0402 | 0.026 | 0.329 | 0.331 | 0.0609 | 0.0417 | 0.0234 |
| NCI-H322M | 0.635 | 0.378 | 0.288 | 0.334 | 0.268 | 0.445 | 0.178 | 0.251 | 0.239 | 0.244 | 0.463 | 0.396 | 0.336 | 0.452 | 0.425 | 0.607 | 0.445 | 0.41 | 0.457 | 0.388 |
| NCI-H2347 | 0.381 | 0.346 | 0.304 | 0.275 | 0.221 | 0.554 | 0.655 | 0.648 | 0.385 | 0.348 | 0.412 | 0.432 | 0.404 | 0.364 | 0.325 | 0.537 | 0.645 | 0.58 | 0.478 | 0.539 |
| NCI-H1975 | 0.416 | 0.268 | 0.176 | 0.129 | 0.122 | 0.315 | 0.282 | 0.229 | 0.168 | 0.136 | 0.638 | 0.502 | 0.48 | 0.148 | 0.122 | 0.307 | 0.373 | 0.387 | 0.197 | 0.167 |
| UMC-11 | 0.384 | 0.349 | 0.328 | 0.275 | 0.185 | 0.942 | 0.908 | 0.821 | 0.714 | 0.228 | 0.295 | 0.36 | 0.287 | 0.284 | 0.233 | 0.57 | 0.417 | 0.518 | 0.37 | 0.311 |
| ABC-1 | 0.197 |  | 0.236 | 0.186 | 0.212 | 0.907 | 0.832 | 0.599 | 0.38 | 0.278 |  | 0.547 | 0.626 | 0.353 | 0.347 |  | 0.798 | 1.07 | 0.497 | 0.436 |
| A-427 | 0.328 | 0.273 | 0.16 | 0.178 | 0.117 | 0.748 | 0.673 | 0.438 | 0.155 | 0.0739 | 0.552 | 0.492 | 0.421 | 0.326 | 0.235 | 0.629 | 0.546 | 0.463 | 0.342 | 0.273 |
| LCLC-97TM1 | 0.376 | 0.406 | 0.179 | 0.187 | 0.144 | 0.141 | 0.167 | 0.126 | 0.11 | 0.12 | 0.17 | 0.135 | 0.134 | 0.0816 | 0.0933 | 0.235 | 0.206 | 0.143 | 0.104 | 0.0854 |
| HCC-15 | 0.47 | 0.492 | 0.331 | 0.144 | 0.0968 | 0.763 | 0.804 | 0.762 | 0.323 | 0.0914 | 0.811 | 0.722 | 0.634 | 0.327 | 0.0961 | 0.622 | 0.67 | 0.612 | 0.226 | 0.107 |
| NCI-H647 | 0.334 | 0.144 | 0.058 | 0.0604 | 0.0397 | 0.304 | 0.163 | 0.0953 | 0.0685 | 0.0658 | 0.388 | 0.287 | 0.0692 | 0.0695 | 0.044 | 0.308 | 0.257 | 0.151 | 0.104 | 0.0673 |
| SW 1573 | 0.353 | 0.202 | 0.104 | 0.0718 | 0.0652 | 0.543 | 0.272 | 0.178 | 0.086 | 0.0746 | 0.432 | 0.308 | 0.131 | 0.0954 | 0.0788 | 0.529 | 0.158 | 0.113 | 0.0711 | 0.0511 |
| NCI-H1651 | 0.392 | 0.359 | 0.335 | 0.151 | 0.155 | 0.501 | 0.54 | 0.409 | 0.136 | 0.0858 | 0.509 | 0.496 | 0.536 | 0.311 | 0.136 | 0.639 | 0.406 | 0.596 | 0.509 | 0.172 |
